91 compounds from PubChem BioAssay AID1159561 (GlaxoSmithKline (GSK), 2015) can be followed below.

The IC50 is the concentration at which inhibition is half-maximal.

Calls of active or inactive are those of the source.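 The calls were made as follows: active = toxic to mouse fibroblast host cells, with IC50 below 50 µM; inactive = the rest.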

In the experiment the test system is NIH-3T3 viability, ATP luminescence. The experiment can be described thus: murine fibroblast viability via ATP level – cell-based, murine fibroblasts, cytotoxicity control for Trypanosoma cruzi inhibitor project (AID 1159561). Conditions: 4 days.
As for `O=C(Nc1ccc(C(=O)N2CCCC2c2ccc3c(c2)OCCCO3)cc1)c1ccco1` (stereo unspecified), the IC50 was > 50 µM (inactive).
As for `Cc1c([N+](=O)[O-])c(C(=O)Nc2sc3c(c2C#N)CCC(C)C3)nn1C` (stereo unspecified), the figure is 13 µM; as for `O=C(c1cnn(-c2ccccc2)n1)N1CCCC(n2ccnc2)C1` (stereo unspecified), 20 µM.
As for `CCCN1CCN(Cc2ccc(S(=O)(=O)Nc3cccc(C)c3)cc2)CC1`, the IC50 was 25 µM.
The same measure for `CCCC(=O)N(Cc1ccccn1)c1nc2ccccc2s1`: > 50 µM (inactive); for `O=C(NCC1CCCCC1)c1cnns1`: > 50 µM (inactive).
For `CCCCNc1nccc(-c2c(-c3ccc(F)cc3)nn3c(N4CCOCC4)cccc23)n1`, the IC50 is 10 µM.
The same measure for `CC(C)N(C(=O)CN1C(=O)C(N)C(=O)N(c2ccccc2)c2ccccc21)c1ccccc1` (stereo unspecified): 20 µM; for `COc1ccc(C(=O)Nc2cc(C(F)(F)F)ccc2N2CCOCC2)c(OC)c1`: 32 µM; for `Cn1nc([N+](=O)[O-])nc1N1CCCCC1`: > 50 µM (inactive).
`CCC1Oc2cc(S(=O)(=O)N(C)CC(=O)N3CCc4ccccc4C3)c(C)cc2NC1=O` (stereo unspecified): the IC50 was > 50 µM (inactive).
For the compound `Cc1ccc2nc(N(Cc3cccnc3)C(=O)CCc3ccccc3)sc2c1`, the concentration for half-maximal inhibition (IC50) was 16 µM.
Take `CCCCn1nnnc1CSc1nc(C)cc(C)c1C#N`: the IC50 was > 50 µM (inactive).
`Clc1cc(Br)ccc1OCCCCn1ccnc1`: the concentration for half-maximal inhibition (IC50) was 16 µM.
`CC(C)(C)C(Cn1ccnc1)NC(=O)c1ccc2nc(C3CC3)oc2c1` (stereo unspecified): the IC50 was > 50 µM (inactive).
As for `CC1=NN(C(=O)CCn2cnc([N+](=O)[O-])n2)C(O)(C(F)(F)F)C1` (stereo unspecified), the figure is > 50 µM (inactive); as for `N#Cc1ccc(S(=O)(=O)N2CCC3(CCN(c4ccccc4)C3=O)CC2)cc1`, > 50 µM (inactive); as for `CS(=O)(=O)c1cccc(CNC(=O)c2cncc(N3CCN(c4ccc(F)cc4)CC3)c2)c1`, 25 µM.
As for `Cc1ccc(S(=O)(=O)Cn2nnnc2C(c2cccnc2)N2CCN(c3ccccc3)CC2)cc1` (stereo unspecified), the figure is 32 µM.
`N#Cc1nc(C=Cc2ccccc2)oc1NCc1cccnc1`: the half-maximal inhibitory concentration (IC50) is 13 µM.
Take `O=C(CN(c1cccc(C(F)(F)F)c1)S(=O)(=O)c1ccc(Cl)cc1)NCc1ccc(F)c(F)c1`: the concentration for half-maximal inhibition (IC50) is 32 µM.
In the case of `O=S(=O)(NCC(c1cccnc1)N1CCN(c2ccccc2F)CC1)c1ccc(F)cc1` (stereo unspecified), the IC50 is > 50 µM (inactive).
`COc1ccc(S(=O)(=O)Nc2ccccc2OC)cc1NC(=O)CCCc1c[nH]c2ccccc12`: the IC50 is > 50 µM (inactive).
In the case of `Cc1cc2cncn2c(C2CCCCN2C(=O)c2cccs2)n1` (stereo unspecified), the IC50 was > 50 µM (inactive).
In the case of `CN(C)CCOc1ccc(N2CCN(S(=O)(=O)c3ccc(Cl)cc3)CC2)cc1`, the IC50 was 16 µM.
Turning to `Cc1ccc2sc(NC(=O)Cn3cnc([N+](=O)[O-])n3)nc2c1`, the IC50 is 50 µM.
The same measure for `Cc1nc(N2CCC(C(=O)N3CCC(O)(c4cccnc4)CC3)CC2)nc2ccc(C(C)C)cc12`: 25 µM; for `COc1ccccc1C=CCN1C[C@H]2CCC[C@@H](C1)C2(O)c1cccnc1` (stereo partly specified): 32 µM; for `NC(=O)c1ccc(-c2cccc(OCCN3CCN(C4CCCCC4)CC3)c2)cc1`: 16 µM.
On to `CN(C)c1ccc(-c2cc3nccnc3c(OC[C@H]3CCCNC3)n2)cn1`, for which the concentration for half-maximal inhibition (IC50) is 16 µM.
As for `O=C1CSC(c2cccnc2)N1c1ccc(Cl)cc1Cl` (stereo unspecified), the figure is > 50 µM (inactive).
Turning to `Cc1ccc(S(=O)(=O)Nc2ccc(CN3CCN(C(=O)c4cccc(C#N)c4)CC3)cc2)cc1`, the IC50 was > 50 µM (inactive).
Take `COc1ccc(C(C)(C)C)cc1S(=O)(=O)n1ccnc1`: the IC50 is > 50 µM (inactive).
Consider `Cn1c(CN2CCN(c3ncc(C(F)(F)F)cc3Cl)CC2)nc2ccncc21`, for which the IC50 is 10 µM.
As for `Cc1nc2nc(C)c(Cc3ccc(C(C)C)cc3)c(=O)n2[nH]1`, the figure is > 50 µM (inactive).
With `C=CCn1nc([N+](=O)[O-])nc1Oc1ccc(Cl)cc1Cl`, the half-maximal inhibitory concentration (IC50) is 50 µM.
As to `O=C(C1CCCCC1)N1CCN(c2nnc(-c3ccccc3)c3ccccc23)CC1`, the IC50 is > 50 µM (inactive).
As for `O=C(NCc1nnc2n1CCCCC2)c1ccc(-c2ccc(F)cc2)o1`, the figure is > 50 µM (inactive); as for `CC(Cn1ccnc1)NC(=O)C=Cc1ccc(Cl)cc1` (stereo unspecified), > 50 µM (inactive); as for `Cc1sc(C)c(C(F)(F)F)c1CNCCCNc1cc(=O)c2ccccc2[nH]1`, 10 µM.
The same measure for `CC(Cn1ccnc1)NC(=O)C1CC1c1cccc(Cl)c1Cl` (stereo unspecified): > 50 µM (inactive); for `O=C(NCc1ccncc1)c1ccccc1N1CCCN(C(=O)Cc2ccc(F)c(F)c2)CC1`: 16 µM; for `O=C(Nc1cccc(F)c1)N1CCC(Oc2cccc(-c3cccnc3)c2)CC1`: 40 µM.
Take `COc1ccc2ncc(F)c(NC(=O)C3(O)CCC(NCc4ccc5c(c4)OCCO5)CC3)c2n1` (stereo unspecified): the 50% inhibitory concentration (IC50) is 7.9 µM.
Turning to `COc1ccc(S(=O)(=O)NC(C)C)cc1Nc1ncc(-c2cccc(F)c2)cn1`, the IC50 was 5 µM.
The same measure for `CN1CCN(c2nc(-c3ccc(Cl)cc3)c3c(N)n(C)nc3n2)CC1`: 25 µM.
With `COc1ccc2c(Cl)c(C(=O)N3CCC3)sc2c1Cl`, the IC50 was > 50 µM (inactive).
As for `CC1(Oc2cncc(Cl)c2)CCN(Cc2cc3ccccc3[nH]2)C1` (stereo unspecified), the figure is 10 µM; as for `CC1=C(C(=O)Nc2ccc(Cl)cc2)C(c2ccncc2)n2ncc(C(=O)Nc3ccccc3)c2N1` (stereo unspecified), 32 µM.
As for `c1cncc(CN(Cc2ccco2)Cc2cn[nH]c2-c2cccs2)c1`, the figure is 32 µM; as for `COc1ccc2ncc(=O)n(CCN3CCOC(CNCc4ccc(C(F)(F)F)cc4F)C3)c2n1` (stereo unspecified), 4 µM.
`Cn1cncc1CN1CCC2(CC1)COC(Cc1ccccc1)C2` (stereo unspecified): the half-inhibitory concentration (IC50) is 25 µM.
Take `O=C(c1cccc(Cl)c1Cl)N1CCn2c1nc(-c1ccncc1)cc2=O`: the IC50 is 20 µM.
As for `Cc1ccccc1OCC(=O)N1CCCN(c2cccnn2)CC1`, the figure is 50 µM; as for `COc1ccc(-c2cc(C)no2)cc1S(=O)(=O)Nc1ccc(F)c(Cl)c1`, 25 µM.
As for `CC(=O)Nc1ccc(-c2noc(CC3CCCN(Cc4cccc(F)c4C)C3)n2)cc1` (stereo unspecified), the figure is 25 µM; as for `Clc1ccc(C(CC2CCCCO2)Cn2cncn2)c(Cl)c1` (stereo unspecified), 40 µM; as for `COc1ccc(NS(=O)(=O)c2cccc(NC(=O)c3cc(F)cc(F)c3)c2)cc1`, 25 µM.
For `CNc1cc(C)nc(C2CN(C(=O)c3n[nH]c4ccccc34)CCO2)c1` (stereo unspecified), the IC50 was > 50 µM (inactive).
`O=[N+]([O-])c1cccc(Nc2cncc(-c3ccccc3CO)c2)c1`: the IC50 is 40 µM.
As for `Cc1cccc(N2CCCN(Cc3c[nH]c4ccccc34)CC2)n1`, the half-maximal inhibitory concentration (IC50) is 25 µM.
As for `COc1ccc(NS(=O)(=O)c2cc(-c3cc(C)[nH]n3)ccc2C)cc1OC`, the figure is > 50 µM (inactive); as for `Cc1ccc(CNC2CCN(C[C@@H]3Cn4c(=O)ccc5ccc(=O)n3c54)CC2)cc1F`, 16 µM; as for `CCCN(Cc1ccc(OC)c(OC)c1)Cc1cc(=O)c2c(C)cc(C)cc2[nH]1`, 32 µM.
On to `O=C(NCCc1ccccn1)C(c1cn[nH]c1)N1CCN(c2ccc(Cl)c(Cl)c2)CC1` (stereo unspecified), for which the half-inhibitory concentration (IC50) is 32 µM.
In the case of `Cc1[nH]nc2c1C(c1ccc(OCc3ccccc3F)cc1)SCC(=O)N2` (stereo unspecified), the IC50 was > 50 µM (inactive).
As for `CNc1cncc(C2CCCN2C(=O)Cc2ccc3ccccc3c2)n1` (stereo unspecified), the figure is > 50 µM (inactive); as for `O=C(CSc1ccc(-c2ccccn2)nn1)Nc1ccc(Cl)cc1`, 32 µM.
As for `O=C(Cn1cnc([N+](=O)[O-])n1)Nc1ccc(Cl)cc1C(=O)c1ccccc1`, the figure is > 50 µM (inactive); as for `COc1ccc(C2CC(c3ccccc3Cl)=NN2C(=O)CNC(=O)C2CCC2)cc1` (stereo unspecified), 32 µM; as for `O=[N+]([O-])c1ccc(C2=CC(c3ccccc3)=NCCN2)cc1`, 7.9 µM.
As for `Cc1ccc2c(c1)-c1onc(C(=O)N3CCCCC3c3cccnc3)c1CO2` (stereo unspecified), the figure is 20 µM; as for `CCOc1ccc(NC(=O)C=Cc2ccc(CC)o2)cc1`, 32 µM.
Take `CCCc1nc2nc(N)nc(N)c2cc1CC`: the IC50 was 32 µM.
With `Cc1cc(C#N)c([N+](=O)[O-])cc1Br`, the IC50 was 20 µM.
For `Cn1cc(CN2CCN(c3ccc4c(c3)CCN(C(=O)[C@H]3C[C@@H]3c3ccccc3)CC4)CC2)cn1`, the half-maximal inhibitory concentration (IC50) was 20 µM.
The same measure for `CC(CNS(=O)(=O)c1ccc(OC(F)F)cc1)c1ccc(NC(=O)c2ccncc2)cc1` (stereo unspecified): > 50 µM (inactive).
`Cn1nc([N+](=O)[O-])nc1Oc1ccc(C(=O)c2ccccc2)cc1`: the IC50 was > 50 µM (inactive).
The same measure for `CN(C)Cc1ccc(-c2ccc(S(=O)(=O)NCC3CCCO3)c(F)c2)cc1` (stereo unspecified): 16 µM.
The same measure for `O=c1[nH]ccc2ccc(-c3ccncc3)cc12`: > 50 µM (inactive); for `Cc1cc(C)c(C#N)c(SCC(=O)c2ccc3c(c2)OCO3)n1`: > 50 µM (inactive); for `CCC(=O)Nc1ccc(-c2nc3ccc(Cl)cc3[nH]2)cc1`: > 50 µM (inactive).
Turning to `COc1ccc(S(=O)(=O)NCc2ccc(-c3ccc(CN(C)CCO)cc3)cc2)cc1`, the concentration for half-maximal inhibition (IC50) is 16 µM.
The same measure for `CS(=O)(=O)c1cccc(-c2cnc(N)c3c(-c4ccc(CO)cc4)csc23)c1`: 25 µM; for `O=C(Nc1ccc(Br)c(Cl)c1)Nc1ccc2c(c1)OCO2`: 16 µM; for `COc1ccc(C)cc1-c1csc(NC(=O)C(C)n2ccnc2)n1` (stereo unspecified): 50 µM.
As for `Cc1cc(Br)cc(C(=O)c2c(C(C)C)c(=O)[nH]c(=O)n2Cc2ccnc(N)c2)c1`, the figure is 16 µM; as for `CN(Cc1nc2ccccc2s1)C(=O)C=Cc1cc2ccccc2o1`, 32 µM.
On to `FC(F)(F)c1cc(C2CCCN(Cc3c[nH]c4ccccc34)C2)nc2ncnn12` (stereo unspecified), for which the IC50 was 20 µM.
The same measure for `O=C(Nc1cccc(Cl)c1)N1CCCCC1c1cccnc1` (stereo unspecified): 32 µM.
As for `CN(Cc1cccnc1)Cc1ccc(N2CCN(C(=O)C3(c4ccc(Cl)cc4)CC3)CC2)nc1`, the figure is 7.9 µM.
